Test results as given in PubChem BioAssay (NCI).
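Tested at 5 concentrations; 48 h exposure; 96-well plates; endpoints linearly interpolated, else capped at highest concentration. TGI: total growth inhibition.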

Experiments:
Test in all cases: NCI-60 cell line screen, 48 h
[1] = test system: A498 renal
[2] = test system: BT-549 breast
[3] = test system: PC-3 prostate
[4] = test system: UACC-257 melanoma
[5] = test system: CCRF-CEM leukemia
[6] = test system: MOLT-4 leukemia
[7] = test system: ACHN renal
[8] = test system: HCT-116 colon
[9] = test system: NCI-H522 lung
[10] = test system: CAKI-1 renal
[11] = test system: HCT-15 colon
[12] = test system: NCI/ADR-RES ovarian
[13] = test system: U251 CNS
[14] = test system: HT29 colon
[15] = test system: UACC-62 melanoma
[16] = test system: SNB-75 CNS
[17] = test system: HS 578T breast
[18] = test system: MALME-3M melanoma
[19] = test system: SR leukemia
[20] = test system: OVCAR-8 ovarian
[21] = test system: SK-MEL-28 melanoma
[22] = test system: NCI-H226 lung
[23] = test system: SN12C renal
[24] = test system: MDA-MB-435
[25] = test system: SK-MEL-2 melanoma
[26] = test system: MDA-N
[27] = test system: OVCAR-4 ovarian
[28] = test system: 786-0 renal
[29] = test system: NCI-H460 lung
[30] = test system: TK-10 renal
[31] = test system: K-562 leukemia
[32] = test system: IGROV1 ovarian
[33] = test system: SK-MEL-5 melanoma
[34] = test system: SF-268 CNS
[35] = test system: DU-145 prostate
[36] = test system: T-47D breast
[37] = test system: HOP-62 NSCLC
[38] = test system: LOX IMVI melanoma
[39] = test system: OVCAR-3 ovarian
[40] = test system: SW-620 colon
[41] = test system: UO-31 renal
[42] = test system: HOP-92 NSCLC
[43] = test system: MDA-MB-231 breast
[44] = test system: SNB-19 CNS
[45] = test system: RPMI-8226 leukemia
[46] = test system: COLO 205 colon
[47] = test system: KM12 colon
[48] = test system: EKVX NSCLC
[49] = test system: MCF7 breast
[50] = test system: OVCAR-5 ovarian
[51] = test system: SF-295 CNS
[52] = test system: SF-539 CNS
[53] = test system: HCC-2998 colon
[54] = test system: A549 NSCLC
[55] = test system: NCI-H23 lung
[56] = test system: RXF 393 renal
[57] = test system: M14 melanoma
[58] = test system: SK-OV-3 ovarian
[59] = test system: HL-60(TB) leukemia

O=C(/C=C/c1ccc2c(c1)OCO2)c1ccccc(=O)c1O
TGI [1]: > 100 µM | TGI [2]: 47.6 µM | TGI [3]: > 100 µM | TGI [4]: 53.1 µM | TGI [5]: 3.93 µM | TGI [6]: > 100 µM | TGI [7]: > 100 µM | TGI [8]: > 100 µM | TGI [9]: 63.4 µM | TGI [10]: 24.1 µM | TGI [11]: > 100 µM | TGI [12]: 14.2 µM | TGI [13]: > 100 µM | TGI [14]: 26.3 µM | TGI [15]: 29.2 µM | TGI [16]: 33.1 µM | TGI [17]: > 100 µM | TGI [18]: 60 µM | TGI [19]: > 100 µM | TGI [20]: 54.2 µM | TGI [21]: 90.4 µM | TGI [22]: > 100 µM | TGI [23]: > 100 µM | TGI [24]: > 100 µM | TGI [25]: 72.7 µM | TGI [26]: > 100 µM | TGI [27]: > 100 µM | TGI [28]: > 100 µM | TGI [29]: 41.7 µM | TGI [30]: 43.5 µM | TGI [31]: > 100 µM | TGI [32]: 41.8 µM | TGI [33]: 23 µM | TGI [34]: 35.9 µM | TGI [35]: 46.7 µM | TGI [36]: 64.6 µM | TGI [37]: > 100 µM | TGI [38]: > 100 µM | TGI [39]: > 100 µM | TGI [40]: > 100 µM | TGI [41]: > 100 µM | TGI [42]: 72.9 µM | TGI [43]: > 100 µM | TGI [44]: 51.8 µM | TGI [45]: > 100 µM | TGI [46]: 20.2 µM | TGI [47]: 26.1 µM | TGI [48]: > 100 µM

COc1ccc(N=C2C(=Nc3ccc(OC)cc3)N(c3ccccc3[N+](=O)[O-])C(=S)N2c2ccc(OC)cc2)cc1
TGI [2]: > 100 µM | TGI [49]: > 100 µM | TGI [3]: > 100 µM | TGI [50]: > 100 µM | TGI [6]: > 100 µM | TGI [7]: > 100 µM | TGI [8]: > 100 µM | TGI [9]: > 100 µM | TGI [10]: > 100 µM | TGI [11]: > 100 µM | TGI [51]: > 100 µM | TGI [12]: > 100 µM | TGI [13]: > 100 µM | TGI [15]: > 100 µM | TGI [16]: > 100 µM | TGI [52]: > 100 µM | TGI [17]: > 100 µM | TGI [19]: > 100 µM | TGI [20]: > 100 µM | TGI [21]: > 100 µM | TGI [22]: > 100 µM | TGI [23]: > 100 µM | TGI [24]: > 100 µM | TGI [53]: > 100 µM | TGI [25]: > 100 µM | TGI [26]: > 100 µM | TGI [54]: > 100 µM | TGI [28]: > 100 µM | TGI [55]: > 100 µM | TGI [30]: > 100 µM | TGI [31]: > 100 µM | TGI [56]: > 100 µM | TGI [32]: > 100 µM | TGI [33]: > 100 µM | TGI [34]: > 100 µM | TGI [35]: > 100 µM | TGI [36]: > 100 µM | TGI [37]: > 100 µM | TGI [39]: > 100 µM | TGI [40]: > 100 µM | TGI [41]: > 100 µM | TGI [42]: > 100 µM | TGI [43]: 90.9 µM | TGI [44]: > 100 µM | TGI [45]: > 100 µM | TGI [46]: 30.8 µM | TGI [57]: > 100 µM | TGI [47]: > 100 µM | TGI [48]: > 100 µM | TGI [58]: > 100 µM

Cc1ccc(C(=O)Nc2ccc(CP(=O)(O)O)cc2)cc1NC(=O)Nc1cc(C(=O)Nc2ccc(CP(=O)(O)O)cc2)ccc1C
TGI [1]: > 100 µM | TGI [2]: > 100 µM | TGI [49]: > 100 µM | TGI [3]: > 100 µM | TGI [4]: > 100 µM | TGI [50]: > 100 µM | TGI [5]: > 100 µM | TGI [6]: > 100 µM | TGI [8]: > 100 µM | TGI [9]: > 100 µM | TGI [10]: > 100 µM | TGI [11]: > 100 µM | TGI [51]: > 100 µM | TGI [12]: > 100 µM | TGI [13]: > 100 µM | TGI [14]: > 100 µM | TGI [15]: > 100 µM | TGI [16]: > 100 µM | TGI [52]: > 100 µM | TGI [17]: > 100 µM | TGI [18]: > 100 µM | TGI [20]: > 100 µM | TGI [21]: > 100 µM | TGI [22]: > 100 µM | TGI [23]: > 100 µM | TGI [24]: > 100 µM | TGI [53]: > 100 µM | TGI [59]: > 100 µM | TGI [25]: > 100 µM | TGI [26]: > 100 µM | TGI [27]: > 100 µM | TGI [54]: > 100 µM | TGI [28]: > 100 µM | TGI [29]: > 100 µM | TGI [55]: > 100 µM | TGI [30]: > 100 µM | TGI [56]: > 100 µM | TGI [32]: > 100 µM | TGI [33]: > 100 µM | TGI [34]: > 100 µM | TGI [35]: > 100 µM | TGI [36]: > 100 µM | TGI [37]: > 100 µM | TGI [38]: > 100 µM | TGI [39]: > 100 µM | TGI [40]: > 100 µM | TGI [41]: > 100 µM | TGI [43]: > 100 µM | TGI [45]: > 100 µM | TGI [46]: > 100 µM | TGI [57]: > 100 µM | TGI [47]: > 100 µM | TGI [48]: > 100 µM | TGI [58]: > 100 µM

COc1ccc(C2Oc3c(cccc3OC)C=C2[N+](=O)[O-])cc1 (stereo not drawn)
TGI [2]: 4.32 µM | TGI [49]: 10.8 µM | TGI [3]: 5.16 µM | TGI [4]: 19 µM | TGI [50]: 6.48 µM | TGI [5]: > 100 µM | TGI [6]: 6.86 µM | TGI [7]: 3.38 µM | TGI [8]: 2.55 µM | TGI [9]: 3.02 µM | TGI [10]: 4.31 µM | TGI [11]: 5.81 µM | TGI [51]: 16.3 µM | TGI [12]: 14.5 µM | TGI [13]: 3.76 µM | TGI [14]: 4.59 µM | TGI [15]: 5.72 µM | TGI [17]: 8.82 µM | TGI [18]: 10 µM | TGI [19]: > 100 µM | TGI [20]: 11.2 µM | TGI [21]: 4.37 µM | TGI [23]: 5.66 µM | TGI [24]: 10.9 µM | TGI [59]: > 100 µM | TGI [26]: 13.1 µM | TGI [27]: 10.1 µM | TGI [54]: 26.4 µM | TGI [28]: 4.98 µM | TGI [29]: 4.15 µM | TGI [55]: 12.4 µM | TGI [30]: 7.5 µM | TGI [31]: 16.3 µM | TGI [56]: 2.7 µM | TGI [32]: 9.3 µM | TGI [33]: 2.93 µM | TGI [34]: 11.3 µM | TGI [35]: 16.4 µM | TGI [36]: 27.7 µM | TGI [37]: 5.8 µM | TGI [38]: 2.81 µM | TGI [39]: 4.75 µM | TGI [41]: 3.14 µM | TGI [43]: 13.6 µM | TGI [44]: 16.6 µM | TGI [45]: > 100 µM | TGI [46]: 6.95 µM | TGI [57]: 2.15 µM | TGI [47]: 4.52 µM | TGI [48]: 25.6 µM | TGI [58]: 15.3 µM
